For data set [1], the target named is hERG-encoded potassium channel (Homo sapiens, UniProt Q12809). The data set can be described thus: Activity against hERG (planar-array-based voltage clamp). Type of data set: cell-based. The text has this:
The activity of compounds according to formula I against the hERG-encoded potassium channel can be determined according to Kiss L, et al. Assay Drug Dev Technol. 1 (2003), 127-35: “High throughput ion-channel pharmacology: planar-array-based voltage clamp”.
(hERG is a cardiac potassium channel; its block is linked to QT prolongation.)

Data set [2] concerns the target T1, human NK3 receptor (Homo sapiens, UniProt P29371).
T1 construct: expressed in transfected cells
T1 sequence (P29371 1-465): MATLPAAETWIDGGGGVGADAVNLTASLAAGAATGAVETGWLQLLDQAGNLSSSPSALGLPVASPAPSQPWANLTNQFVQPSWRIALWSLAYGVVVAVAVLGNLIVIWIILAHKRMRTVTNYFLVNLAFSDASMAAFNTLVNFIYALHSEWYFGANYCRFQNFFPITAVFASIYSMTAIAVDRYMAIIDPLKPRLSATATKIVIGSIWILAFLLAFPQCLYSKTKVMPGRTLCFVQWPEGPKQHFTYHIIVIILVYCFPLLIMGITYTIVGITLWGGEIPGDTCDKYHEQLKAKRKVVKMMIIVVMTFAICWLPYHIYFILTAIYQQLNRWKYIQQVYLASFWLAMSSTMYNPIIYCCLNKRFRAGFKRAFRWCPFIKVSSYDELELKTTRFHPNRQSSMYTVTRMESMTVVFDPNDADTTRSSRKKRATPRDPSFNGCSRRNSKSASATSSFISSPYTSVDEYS
The data set can be described thus: FLIPR assay, inhibition of human NK3 receptor activation (intracellular Ca2+). It is filed as cell-based. On the procedure: (§1) Chinese Hamster Ovary (CHO) K1 cells (obtained from ATCC) were stably transfected with the human NK2 receptor (hNK2R cDNA in pRc/CMV, Invitrogen) or the human NK3 receptor (hNK3R in pcDNA 3.1/Hygro (+)/IRES/CD8, Invitrogen vector modified at AstraZeneca EST-Bio UK, Alderley Park). The cells were transfected with the cationic lipid reagent LIPOFECTAMINE™ (Invitrogen) and selection was performed with Geneticin (G418, Invitrogen) at 1 mg/ml for the hNK2R transfected cells and with Hygromycin (Invitrogen) at 500 μg/ml for the hNK3R transfected cells. Single cell clones were collected by aid of Fluorescence Activated Cell Sorter (FACS), tested for functionality in a FLIPR assay (see below), expanded in culture and cryopreserved for future use. […]
(§2) The activity of a compound of the invention to inhibit NK1/NK2/NK3 receptor activation measured as NK1/NK2/NK3 receptor mediated increase in intracellular Ca^2+ was assessed by the following procedure:
(§3) CHO cells stably transfected with human NK1, NK2 or NK3 receptors were plated in black walled/clear bottomed 96-well plates (Costar 3904) at 3.5×10^4 cells per well and grown for approximately 24 h in normal growth media in a 37° C. […] The response was measured as the peak relative fluorescence after agonist addition and IC50s were calculated from ten-point concentration-response curves for each compound. […]

In data set [3] the target is T2, human NK2 receptor (Homo sapiens, UniProt P21452).
T2 construct: expressed in transfected cells
T2 sequence (P21452 1-398): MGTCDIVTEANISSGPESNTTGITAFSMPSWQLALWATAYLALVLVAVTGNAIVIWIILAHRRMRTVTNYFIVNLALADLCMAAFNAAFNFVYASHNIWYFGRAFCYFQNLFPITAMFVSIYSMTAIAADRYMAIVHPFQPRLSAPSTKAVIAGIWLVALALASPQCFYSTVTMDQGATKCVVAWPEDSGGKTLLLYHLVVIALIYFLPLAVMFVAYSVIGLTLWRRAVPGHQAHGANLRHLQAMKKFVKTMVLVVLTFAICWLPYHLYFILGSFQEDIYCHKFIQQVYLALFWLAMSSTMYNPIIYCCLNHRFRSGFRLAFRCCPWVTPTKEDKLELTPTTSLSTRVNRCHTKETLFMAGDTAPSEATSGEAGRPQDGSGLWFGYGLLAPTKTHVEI
Kind of data set: FLIPR assay, inhibition of human NK2 receptor activation (intracellular Ca2+). Type of data set: cell-based. On the procedure: as §1, §2, §3

Data set [4] has as its target T3, human NK1 receptor (Homo sapiens, UniProt P25103).
T3 construct: Human NK1 receptor cDNA (obtained from RNA-PCR from lung tissue) was subcloned into pRcCMV (Invitrogen); expressed in transfected cells
Kind of data set: FLIPR assay, inhibition of human NK1 receptor activation (intracellular Ca2+). It is filed as cell-based. On the procedure:
as §1, §2, §3

Data set [5] is described as follows: Metabolic stability in liver microsomes (intrinsic clearance). It is filed as in vitro ADME. The conditions noted are these: human, pH 7.4, HLM. The protocol:
The metabolic stability of compounds according to formula I can be determined as described below: The rate of biotransformation can be measured as either metabolite(s) formation or the rate of disappearance of the parent compound. The experimental design involves incubation of low concentrations of substrate (usually 1.0 μM) with liver microsomes (usually 0.5 mg/ml) and taking out aliquotes at varying time points (usually 0, 5, 10, 15, 20, 30, 40 min.). The test compound is usually dissolved in DMSO. The DMSO concentration in the incubation mixture is usually 0.1% or less since more solvent can drastically reduce the activities of some CYP450s. Incubations are done in 100 mM potassium phosphate buffer, pH 7.4 and at 37° C. Acetonitrile or methanol is used to stop the reaction. The parent compound is analysed by HPLC-MS. From the calculated half-life, t1/2, the intrinsic clearance, Clint, is estimated by taking microsomal protein concentration and liver weight is into account.
A general note: Microsomes from liver hold many membrane-bound enzymes, among them those of drug oxidation.

Where a name gives a salt, the structure may show the parent alone.

Broadly, the IC50 is the concentration that inhibits the measured activity by half. Read a high IC50 as weaker potency in that assay. What is called microsomal CLint is the capacity of the preparation to metabolise the compound, expressed as a volume cleared per time.

Chain of hERG-encoded potassium channel (Q12809 whole entry): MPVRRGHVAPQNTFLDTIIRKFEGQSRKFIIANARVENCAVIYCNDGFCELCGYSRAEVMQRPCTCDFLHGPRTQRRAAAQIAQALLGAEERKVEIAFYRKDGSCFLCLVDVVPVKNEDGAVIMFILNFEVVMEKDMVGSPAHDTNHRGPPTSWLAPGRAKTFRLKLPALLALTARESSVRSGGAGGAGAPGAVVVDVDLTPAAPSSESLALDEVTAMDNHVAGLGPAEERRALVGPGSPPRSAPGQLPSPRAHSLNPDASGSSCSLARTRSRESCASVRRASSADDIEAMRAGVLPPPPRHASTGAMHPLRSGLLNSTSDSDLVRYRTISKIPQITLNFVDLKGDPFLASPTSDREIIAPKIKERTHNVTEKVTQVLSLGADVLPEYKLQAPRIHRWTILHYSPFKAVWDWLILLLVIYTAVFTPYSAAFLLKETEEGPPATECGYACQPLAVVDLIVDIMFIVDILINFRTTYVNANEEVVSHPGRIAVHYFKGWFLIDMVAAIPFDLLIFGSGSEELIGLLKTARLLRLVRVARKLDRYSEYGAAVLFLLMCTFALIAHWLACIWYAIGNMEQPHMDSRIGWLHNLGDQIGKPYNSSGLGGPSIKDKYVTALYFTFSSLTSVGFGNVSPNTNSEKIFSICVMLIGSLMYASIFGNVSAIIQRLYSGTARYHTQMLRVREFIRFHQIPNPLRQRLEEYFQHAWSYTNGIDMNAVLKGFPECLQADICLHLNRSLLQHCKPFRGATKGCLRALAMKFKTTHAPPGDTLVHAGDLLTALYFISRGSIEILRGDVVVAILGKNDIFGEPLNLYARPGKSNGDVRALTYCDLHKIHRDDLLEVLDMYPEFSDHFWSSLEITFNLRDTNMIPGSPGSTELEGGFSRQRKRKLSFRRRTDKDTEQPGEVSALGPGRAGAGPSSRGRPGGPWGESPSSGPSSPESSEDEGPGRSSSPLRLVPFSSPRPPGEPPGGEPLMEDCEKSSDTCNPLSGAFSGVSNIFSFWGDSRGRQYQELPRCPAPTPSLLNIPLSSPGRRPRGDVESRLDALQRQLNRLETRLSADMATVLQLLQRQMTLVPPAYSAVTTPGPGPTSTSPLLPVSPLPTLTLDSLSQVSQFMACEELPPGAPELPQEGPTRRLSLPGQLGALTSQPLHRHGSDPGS
T3 sequence (P25103 whole entry): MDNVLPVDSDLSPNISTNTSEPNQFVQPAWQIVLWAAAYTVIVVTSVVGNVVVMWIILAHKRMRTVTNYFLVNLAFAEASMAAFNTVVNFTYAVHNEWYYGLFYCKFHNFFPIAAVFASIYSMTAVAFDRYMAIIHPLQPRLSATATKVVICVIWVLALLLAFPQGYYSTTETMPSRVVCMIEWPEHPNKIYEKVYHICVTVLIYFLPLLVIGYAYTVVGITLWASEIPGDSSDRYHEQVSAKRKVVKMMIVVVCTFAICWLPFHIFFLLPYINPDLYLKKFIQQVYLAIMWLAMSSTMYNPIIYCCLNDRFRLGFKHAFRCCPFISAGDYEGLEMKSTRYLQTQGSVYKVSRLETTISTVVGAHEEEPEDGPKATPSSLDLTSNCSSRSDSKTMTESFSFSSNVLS

The compound `CN(C[C@@H](CCN1CC(N2[C@@H]3CC[C@H]2CC(O)C3)C1)c1ccc(F)cc1)C(=O)c1cc(Br)cc(C(F)(F)F)c1` (stereo partly drawn) [Ex 1, exo-3-Bromo-N-((2S)-2-(4-fluorophenyl)-4-{3-(3-hydroxy-8-azabicyclo[3.2.1]oct-8-yl)azetidin-1-yl}butyl)-N-methyl-5-(trifluoromethyl)benzamide dihydrochloride] yielded an IC50 in data set [1] of 13000 nM. Besides, the Kb in data set [2] was 12.6 nM; in data set [3], 7.94 nM; in data set [4], 7.94 nM. This compound returned a microsomal CLint at 1 μM in data set [5] of 28 µL/min/mg.

The record behind these values is patent US20080146538A1, “Compounds 614” (priority 2006, published 2008).
